Reference: patent EP0110570A2, “Triazole antifungal agents” (Pfizer Limited, priority 1982, dated 1984)
Where two headings read alike, the source gives them in different places.

System: Candida albicans
Assay: In vivo protection of mice inoculated with Candida albicans (PD50)
Details: read-out: PD50
Experimental: The in vivo evaluation of the compounds can be carried out at a series of dose levels by intraperitoneal or intravenous injection or by oral administration, to mice which are inoculated with a strain of Candida albicans. Activity is based on the survival of a treated group of mice after the death of an untreated group of mice following 48 hours observation. The dose level at which the compound provides 50% protection against the lethal effect of the infection (PD50) is noted.
Using the test method described previously in the text, the following PD50 values (mg./kg.) were obtained in mice infected with Candida albicans:-

[1] = mice infected with Candida albicans, dose level giving 50% protection against the lethal effect of the infection, survival after 48 hours observation, route not specified (intraperitoneal, intravenous or oral)

Row | Compound | ED50 [1] [mg/kg] | ED50 (Candida albicans, 48 h) [mg/kg]
1 | Fc1ccc(C(Cl)(Cn2cncn2)C(F)(F)F)c(F)c1 (centres unmarked) [Example 1, 1-[2-chloro-2-(2,4-difluorophenyl)-3,3,3-trifluoropropyl]-1H-1,2,4-triazole] | 0.15 | 
2 | FC(F)(F)C(Cl)(Cn1cncn1)c1ccc(Cl)cc1 (centres unmarked) [Example 2] | 0.6 | 
3 | Fc1ccc(C(Cl)(Cn2cncn2)C(F)(F)F)cc1 (centres unmarked) [Example 3] | 0.6 | 
4 | Fc1ccc(C(Cl)(Cn2cncn2)C(F)(F)C(F)(F)F)cc1 (centres unmarked) [Example 4] | < 1 | 
5 | Fc1ccc(C(Cl)(Cn2cncn2)C(F)(F)C(F)(F)C(F)(F)F)c(F)c1 (centres unmarked) [Example 5] |  | < 1
